Experiments:
MDCK cells [1] = assay: Hydroxylamine-sensitive assay of alkyne-labeled proteins (thioester vs amide linkage); format: cell-based, canine; details: blots treated with 5% hydroxylamine for 72 h
Method: These experiments validate the utility of C14 and C16 ω-alkynyl fatty-acyls as probes for protein myristoylation and palmitoylation, respectively.
(§1) Western blotting: Labeled protein lysates were resolved by SDS page using a 4-20% Tris-glycine gel (1 h 10 min at 180V). For immunoblotting of biotin-labeled proteins after electrophoresis, proteins were transferred onto a nitrocellulose membrane, which was blocked with PBS, 0.1% Tween-20 [PBST] and 5% non-fat dried milk for 2 h at RT or overnight at 4° C. The membrane was washed three times with PBST (5 minutes each), and incubated with streptavidin-horseradish peroxidase (Invitrogen Zymed #43-4323, 1:1250 in PBST) for 1 h at RT. The membrane was washed with PBST three times (10 min each) and developed using enhanced chemiluminescence according to manufacturer's recommendation (Amersham Biosciences). For the hydroxylamine-sensitive assay, following the transfer of proteins to nitrocellulose membranes, the membranes were incubated 65 to 72 h at RT with PBST and 5% NH2OH (Sigma-Aldrich). After the hydroxylamine treatment, the membranes were blocked with 5% non-fat dried milk for 2 h at RT or overnight at 4° C. and analyzed by streptavidin blot as described above.

MDCK cells [2] = assay: Specificity of incorporation: cycloheximide treatment and competition with myristic and palmitic acids; format: cell-based, canine; details: for probe specificity from competition experiments with myristic and palmitic acids: increasing concentration of myristic (MA) or palmitic acid (PA)
Method: MDCK cells were treated with C14 ω-alkynyl fatty acid (100 μM) in the presence or absence cycloheximide (100 μg/ml) for 5 h. Cellular proteome was prepared, reacted with biotin-azide, resolved by gel electrophoresis and detected by western blotting with streptavidin-HRP, as described using methods described herein. Asterisks denote bands labeled by treatment with probe but not in DMSO control; (B, C) Dose-dependent competition of C14 and C16 ω-alkynyl fatty acids with myristic (MA) and palmitic acids (PA), respectively. MDCK cells were treated with ω-alkynyl fatty acid probes as indicated in the presence of increasing concentration of myristic (MA) and palmitic acids (PA). Samples were processed as described herein.
The ω-alkynyl fatty-acyls were metabolically incorporated onto cellular proteins in a time- and dose-dependent manner.
Cells were seeded with complete media onto 6-well plates (8×10^5 cells/2 ml/well). They were incubated for 24 h before the treatment. Then the growth medium was removed, cells washed once with PBS and 2 mL of the ω-alkynyl fatty-acyls containing media was added to cells and incubated at 37° C. in a 5% CO2 humidified incubator. After 24 hours, the cells were washed three times with cold PBS and cell extracts were prepared by resuspending the cells in 400 μL of lysis buffer (1% Nonidet P-40/150 mM NaCl/protease and phosphatase inhibitor/100 mM sodium phosphate, pH 7.5). To obtain a final proteome concentration of 2 mg/ml (protein concentration determined by BCA kit) cell lysates were concentrated by centrifugation for 15 minutes at 14,000 rpm at 4° C. with the Centrifugal Ultrafiltration Devices (Pall centrifugal devices MWCO 3K, Nanosep device, cat # P/N ODOO3C34). […]
Western blotting: Labeled protein lysates were resolved by SDS page using a 4-20% Tris-glycine gel (1 h 10 min at 180V). […] After the hydroxylamine treatment, the membranes were blocked with 5% non-fat dried milk for 2 h at RT or overnight at 4° C. and analyzed by streptavidin blot as described above.

[3] = tested on: PC3 prostate cancer cells; assay: Fluorescence microscopy of cellular fatty-acylated proteins; format: cell-based; details: for subcellular distribution of probe: PC3 cells, 100 μM, 3 h, confocal microscopy
Method: Cells were treated with DMSO or ω-alkynyl fatty-acyls (100 μM) as indicated for 3 h. The cells were then fixed, permeabilized and click reacted with rhodamine-azide and imaged by epifluorescence microscopy. […] All images were acquired the same way using 63× oil objective. The fluorescence along the z-axis is shown on top of each confocal section (Scale bar, 10 μm); (J, K, L) The distribution of lipid-modified proteins in different cellular states can be monitored by fluorescence imaging. […] The fluorescence along the z-axis is shown on the left-hand side of panel (K).
Cells were then fixed, permeabilized and click reacted with biotin-azide followed with treatment with streptavidin-conjugated Alexa488 and (optionally Hoechst stain for nuclei staining) and imaged using epifluorescence microscopy technique as described herein.
Fluorescence microscopy: Cells were seeded onto 12-well plates (4×10^5 cells/well) containing coverslips and incubated for 24 h before treatment. The growth medium was removed and cells were washed once with PBS before adding 1 mL of medium containing the co-alkynyl fatty acid at the indicated concentration. After 24-48 h incubation at 37° C./5% CO2, cells were washed three times with PBS to remove excess probe (ω-alkynyl fatty acid) and fixed with 4% paraformaldehyde (PFA) for 10 min at RT. Cells were then permeabilized with PBS/0.1% triton X-100 for 1-2 min at RT, washed extensively with the following reagents: 0.1 mM biotin-azide or rhodamine-azide, 1 mM Tris (2-carboxyethyl)phosphine hydrochloride (TCEP) dissolved in water, and 1 mM CuSO4 in PBS at RT for 1 h. The labeled cells were rinsed extensively with PBS and blocked in PBS/5% BSA for 45 min at RT. Cells were stained with streptavidin-conjugated AlexaFluor 488 (Invitrogen cat # S32354, 1:500) in PBS/5% BSA for 45 min at RT and nuclei were stained with Hoechst 33342 (MP # H21492; 1:10,000 in PBS) for 10 min at RT. For labeling with rhodamine-azide, cells were directly stained with Hoechst.

MDCK cells [4] = assay: Metabolic incorporation of ω-alkynyl fatty-acyls onto cellular proteins, click with biotin-azide, streptavidin-HRP western blot; format: cell-based, canine; details: for degree of protein incorporation / time dependence of levels of labeled protein bands: 100 μM; for degree of protein incorporation: 24 h, western blot with streptavidin-HRP; for time dependence of levels of labeled protein bands: within 6 h; for dose dependence of metabolic incorporation: increasing concentration, at 4 h
From the text: Upon preparing the cellular proteome, the alkynyl group incorporated onto acylated proteins was chemoselectively ligated to azide-tagged biotin (for synthesis see Example 2) or fluorophore by a Cu(I)-catalyzed Huisgen alkyne-azide cycloaddition reaction (See, Wang, Q. et al. J. Am. Chem. Soc. 125, 3192-3193 (2003)) (FIG. 1C). The conjugated proteins were separated by gel electrophoresis and analyzed by Western blot using streptavidin-linked horseradish peroxidase (FIG. 2A). […] This was reasonable considering that the majority of protein lipid modifications in cells comprise myristoylation and palmitoylation.
Labeling and detection of lipoproteins in cell extracts: The ω-alkynl fatty-acyl compounds used for the examples were dissolved in DMSO to generate 50 mM stock solutions, and were stored at −80° C. Before cell treatment, the analogs were dissolved in DMEM serum-free media supplemented with 5% BSA (fatty acid-free—SIGMA EC232-936-2) and glutamax (for Raw and MDCK cell lines) at a final concentration of 100 μM. The fatty acid-media solutions were sonicated for 15 minutes at room temperature and then allowed to pre-complex for 15 min at RT.
Cells were seeded with complete media onto 6-well plates (8×10^5 cells/2 ml/well). They were incubated for 24 h before the treatment. Then the growth medium was removed, cells washed once with PBS and 2 mL of the ω-alkynyl fatty-acyls containing media was added to cells and incubated at 37° C. in a 5% CO2 humidified incubator. […] To obtain a final proteome concentration of 2 mg/ml (protein concentration determined by BCA kit) cell lysates were concentrated by centrifugation for 15 minutes at 14,000 rpm at 4° C. with the Centrifugal Ultrafiltration Devices (Pall centrifugal devices MWCO 3K, Nanosep device, cat # P/N ODOO3C34). Protein extracts were then subjected to the probe labeling reaction in 25 μL volume, for 1 h at RT (room temperature), at final concentrations of the following reagents (See, Speers, A. E. & Cravatt, B. F. Profiling enzyme activities in vivo using click chemistry methods. Chem Biol 11, 535-46 (2004); Hsu, T. L. et al. Alkynyl sugar analogs for the labeling and visualization of glycoconjugates in cells. Proc Natl Acad Sci USA 104, 2614-9 (2007)): 0.1 mM biotin-azide, 1 mM Tris (2-carboxyethyl)phosphine hydrochloride (TCEP, Sigma-Aldrich) dissolved in water, 0.2 mM Tris[(1-benzyl-1H-1,2,3-triazol-4-yl)methyl]amine (TBTA, Sigma-Aldrich) dissolved in DMSO/t-butanol (20%/80%) and 1 mM CuSO4 in PBS. The order of addition of the reagents to the protein extracts is important for the reaction and has to be followed as described above.
as §1

[5] = PC3 cells undergoing cell division, tubulin marker

SMILES: C#CCCCCCCCC(=O)O [C11]
- sensitivity of labeled proteins to hydroxylamine / type of linkage (MDCK cells [1]): predominantly attach via thioester bonds

SMILES: C[C@@H]1C[C@@H]([C@H](O)CC2CC(=O)NC(=O)C2)C(=O)[C@@H](C)C1 [cycloheximide, reference compound]
- effect on protein labeling with C14 (MDCK cells [2]; C14 100 μM, cycloheximide 100 μg/ml, 5 h): inhibits protein labeling with C14

SMILES: C#CCCCCCCCCCCCC(=O)O [C14, 13-Tetradecyn-1-oic acid]
- subcellular distribution of probe [3]: distributed in a punctuate pattern outside the nucleus
- sensitivity of labeled proteins to hydroxylamine / type of linkage (MDCK cells [1]): resistance to hydroxylamine treatment
- probe specificity from competition experiments with myristic and palmitic acids (MDCK cells [2]): specific probes for protein N-myristoylation
- degree of protein incorporation (MDCK cells [4]): highest degree of protein incorporation
- time dependence of levels of labeled protein bands (MDCK cells [4]): time-dependent increase in the levels of labeled protein bands
- dose dependence of metabolic incorporation (MDCK cells [4]): dose-dependent metabolic incorporation

SMILES: C#CCCCCCCCCCCCCCC(=O)O [C16, 15-Hexadecyn-1-oic acid]
- distribution of labeled proteins during cytokinesis [3, 5]: concentrate at the cleavage furrow
- distribution of labeled proteins in metaphase cells [3, 5]: at the plasma membrane and in dense structures around the spindle and throughout the body
- subcellular distribution of probe [3]: distributed in a punctuate pattern outside the nucleus
- sensitivity of labeled proteins to hydroxylamine / type of linkage (MDCK cells [1]): substantial sensitivity to hydroxylamine
- probe specificity from competition experiments with myristic and palmitic acids (MDCK cells [2]): S-palmitoylation
- degree of protein incorporation (MDCK cells [4]): highest degree of protein incorporation
- time dependence of levels of labeled protein bands (MDCK cells [4]): time-dependent increase in the levels of labeled protein bands
- dose dependence of metabolic incorporation (MDCK cells [4]): dose-dependent metabolic incorporation
